Measured values published in patent US8552002B2 (Novartis AG, priority 2004, dated 2013).
Read-outs that look alike come from different tables or passages of the source.

Experiments:
FGFR3 (K650E) = target: T1, FGFR3 (K650E) (Homo sapiens, UniProt P22607, K650E); test: Recombinant GST-FGFR-3-K650E tyrosine kinase assay (33P into poly(Glu,Tyr)); format: biochemical
T1 construct: amino acids 411-806 of the cytoplasmic domain of human FGFR-3, N-terminally fused to GST; made in house; host or cells: Sf9 insect cells (baculovirus)
T1 sequence (P22607 411-806 K650E): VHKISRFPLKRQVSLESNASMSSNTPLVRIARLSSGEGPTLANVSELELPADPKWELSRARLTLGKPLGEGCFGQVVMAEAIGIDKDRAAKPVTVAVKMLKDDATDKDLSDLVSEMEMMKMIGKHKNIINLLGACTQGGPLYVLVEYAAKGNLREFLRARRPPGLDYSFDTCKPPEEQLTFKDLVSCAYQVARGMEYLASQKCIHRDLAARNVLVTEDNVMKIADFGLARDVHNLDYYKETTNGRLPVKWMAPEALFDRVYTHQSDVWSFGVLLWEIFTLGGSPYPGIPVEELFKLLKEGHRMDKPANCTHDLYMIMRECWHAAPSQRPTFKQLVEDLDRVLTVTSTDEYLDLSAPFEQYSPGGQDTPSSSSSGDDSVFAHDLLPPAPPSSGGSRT

KDR = target: T2, KDR (Homo sapiens, UniProt P35968); test: Inhibitory activity against KDR (VEGF-R2), in vitro data of Examples 170 and 207; format: biochemical; conditions: read-out: KDR inhibition at 10 μM
T2 construct: expressed in transfected cells; host or cells: CHO cells
T2 sequence (P35968 20-1356): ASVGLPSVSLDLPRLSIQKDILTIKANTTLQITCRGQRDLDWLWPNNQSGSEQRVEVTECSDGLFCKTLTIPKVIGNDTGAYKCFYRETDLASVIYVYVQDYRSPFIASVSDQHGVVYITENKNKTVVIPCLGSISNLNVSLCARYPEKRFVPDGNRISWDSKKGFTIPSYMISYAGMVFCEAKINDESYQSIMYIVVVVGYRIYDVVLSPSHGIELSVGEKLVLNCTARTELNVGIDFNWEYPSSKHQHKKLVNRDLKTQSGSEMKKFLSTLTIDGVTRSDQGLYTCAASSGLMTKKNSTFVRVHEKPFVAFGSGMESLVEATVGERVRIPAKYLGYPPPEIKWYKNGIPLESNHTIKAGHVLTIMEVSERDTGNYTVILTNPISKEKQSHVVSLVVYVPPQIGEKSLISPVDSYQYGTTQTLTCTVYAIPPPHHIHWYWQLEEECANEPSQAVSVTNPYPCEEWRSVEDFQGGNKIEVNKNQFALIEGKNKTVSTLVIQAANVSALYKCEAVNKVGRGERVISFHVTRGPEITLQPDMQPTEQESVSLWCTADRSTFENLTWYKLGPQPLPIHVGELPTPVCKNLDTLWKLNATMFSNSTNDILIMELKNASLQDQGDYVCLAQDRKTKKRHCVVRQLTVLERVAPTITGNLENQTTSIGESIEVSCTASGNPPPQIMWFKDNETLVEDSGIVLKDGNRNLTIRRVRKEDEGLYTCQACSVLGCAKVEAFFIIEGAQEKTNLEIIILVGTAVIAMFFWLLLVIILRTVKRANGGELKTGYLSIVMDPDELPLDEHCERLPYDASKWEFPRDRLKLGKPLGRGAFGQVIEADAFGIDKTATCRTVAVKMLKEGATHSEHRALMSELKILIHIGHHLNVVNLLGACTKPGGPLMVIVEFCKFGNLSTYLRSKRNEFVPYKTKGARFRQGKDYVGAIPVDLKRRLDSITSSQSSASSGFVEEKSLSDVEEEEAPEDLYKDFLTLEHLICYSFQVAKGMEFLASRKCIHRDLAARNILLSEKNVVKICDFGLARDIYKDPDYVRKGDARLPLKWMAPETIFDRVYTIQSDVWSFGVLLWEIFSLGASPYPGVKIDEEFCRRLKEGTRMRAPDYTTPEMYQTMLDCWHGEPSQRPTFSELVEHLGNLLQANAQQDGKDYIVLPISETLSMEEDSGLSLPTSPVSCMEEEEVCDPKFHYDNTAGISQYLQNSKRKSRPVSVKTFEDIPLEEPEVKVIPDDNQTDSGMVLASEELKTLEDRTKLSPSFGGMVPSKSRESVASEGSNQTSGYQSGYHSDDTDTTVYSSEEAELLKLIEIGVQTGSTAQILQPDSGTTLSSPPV
Procedure, shortened: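 KDR tyrosine phosphorylation detected by luminescence after overnight 4° C capture of 20 μg lysate protein with PY20:AP antibody. Lysates came from cells given compound for 2 h at 37° C, then final 20 ng/ml VEGF for 5 min; compound-free medium as control.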

Tek = target: T3, Tek (Homo sapiens, UniProt Q02763); test: Recombinant GST-Tek (Tie-2) tyrosine kinase assay (33P into poly(Glu,Tyr)); format: biochemical; conditions: Examples 1 to 169
T3 construct: amino acids 773-1124 of the cytoplasmic kinase domain of human Tek, N-terminally fused to GST; made in house; host or cells: Sf9 insect cells (baculovirus)
T3 sequence (Q02763 773-1124): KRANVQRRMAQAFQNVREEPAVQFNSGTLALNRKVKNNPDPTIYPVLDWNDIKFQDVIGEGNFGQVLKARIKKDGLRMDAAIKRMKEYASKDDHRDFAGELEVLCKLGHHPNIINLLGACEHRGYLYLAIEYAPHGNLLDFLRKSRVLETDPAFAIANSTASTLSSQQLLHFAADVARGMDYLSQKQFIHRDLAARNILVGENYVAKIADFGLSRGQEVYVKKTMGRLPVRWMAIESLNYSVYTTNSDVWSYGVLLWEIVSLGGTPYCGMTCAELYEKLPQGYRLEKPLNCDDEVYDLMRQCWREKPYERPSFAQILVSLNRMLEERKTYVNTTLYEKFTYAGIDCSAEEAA
Procedure, shortened: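 GST-fused human Tek kinase domain (aa 773-1124), baculovirus-expressed, 150 ng per reaction; 10 μg/mL poly(Glu,Tyr) 4:1, 4.0 μM [γ-33P]ATP, 3 mM MnCl2/3 mM MgCl2, pH 7.5, 30 min at ambient temperature. 33P uptake read on PVDF filters; IC50 by linear regression from four concentrations in duplicate.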

c-Abl = c-Abl (Homo sapiens, UniProt P00519); test: Inhibitory activity against c-Abl (Example 207); format: biochemical; conditions: Examples 171 to 206
Chain of c-Abl (P00519 whole entry): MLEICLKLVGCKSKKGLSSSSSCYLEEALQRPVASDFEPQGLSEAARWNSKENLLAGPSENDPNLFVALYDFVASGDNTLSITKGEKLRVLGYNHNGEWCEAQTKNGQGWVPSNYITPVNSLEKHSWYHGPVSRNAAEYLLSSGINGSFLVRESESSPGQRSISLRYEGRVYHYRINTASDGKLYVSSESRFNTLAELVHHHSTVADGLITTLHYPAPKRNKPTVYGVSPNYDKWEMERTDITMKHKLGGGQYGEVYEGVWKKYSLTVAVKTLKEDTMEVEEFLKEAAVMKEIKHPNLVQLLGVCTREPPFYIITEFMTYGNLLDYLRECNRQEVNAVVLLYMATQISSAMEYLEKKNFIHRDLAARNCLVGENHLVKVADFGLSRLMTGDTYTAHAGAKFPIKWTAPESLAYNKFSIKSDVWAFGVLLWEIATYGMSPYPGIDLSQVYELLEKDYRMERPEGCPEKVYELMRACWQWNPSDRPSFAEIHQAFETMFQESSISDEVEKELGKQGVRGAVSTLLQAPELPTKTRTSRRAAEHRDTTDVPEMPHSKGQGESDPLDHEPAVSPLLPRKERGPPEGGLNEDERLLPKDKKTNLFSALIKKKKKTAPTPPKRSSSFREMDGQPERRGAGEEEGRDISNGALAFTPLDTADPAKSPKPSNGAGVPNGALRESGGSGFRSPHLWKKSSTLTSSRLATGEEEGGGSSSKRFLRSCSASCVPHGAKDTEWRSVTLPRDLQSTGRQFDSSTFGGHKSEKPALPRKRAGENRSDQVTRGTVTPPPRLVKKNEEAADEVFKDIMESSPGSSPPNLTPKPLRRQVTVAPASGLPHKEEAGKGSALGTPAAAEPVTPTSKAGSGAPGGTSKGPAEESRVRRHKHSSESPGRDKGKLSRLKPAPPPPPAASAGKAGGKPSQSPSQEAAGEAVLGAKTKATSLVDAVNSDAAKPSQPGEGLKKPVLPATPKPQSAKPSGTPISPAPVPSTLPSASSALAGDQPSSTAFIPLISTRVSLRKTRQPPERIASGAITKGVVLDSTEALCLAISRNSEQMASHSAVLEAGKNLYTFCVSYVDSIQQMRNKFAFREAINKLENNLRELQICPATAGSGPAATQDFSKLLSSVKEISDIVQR

[1] = 10 μM, Examples 1 to 169, read-out: FGFR3 (K650E) inhibition at 10 μM
[2] = 10 μM, Examples 171 to 206, read-out: FGFR3 inhibition at 10 μM

melting point [°C]	inhibition at 10 µM (FGFR3 (K650E); [1]) [%]	inhibition at 10 µM (KDR; 10 μM, Examples 1 to 169) [%]	inhibition at 10 µM (Tek) [%]	inhibition at 10 µM (c-Abl) [%]	inhibition at 10 µM (FGFR3 (K650E); [2]) [%]	inhibition at 10 µM (KDR; 10 μM, Examples 171 to 206) [%]	SMILES	inhibition at 10 µM (FGFR3 (K650E); read-out: FGFR3 (K650E) inhibition at 10 μM) [%]	inhibition at 10 µM (KDR) [%]
165 to 175	27 to 100	67 to 100	12 to 100				CN1CCN(C(=O)c2ccc(Nc3cc(NC(=O)Nc4c(Cl)cc(Cl)cc4Cl)ncn3)cc2)CC1 [Example 85, 1-{6-[4-(4-Methyl-piperazin-1-carbonyl)-phenylamino]-pyrimidin-4-yl}-3-(2,4,6-trichloro-phenyl)-urea]		
				79 to 100	56 to 98	87 to 100	Cc1ccc(NC(=O)c2cccc(C(F)(F)F)c2)cc1NC(=O)N(Cc1cccs1)c1cc(Nc2ccc(N3CCN(C)CC3)cc2)ncn1 [Example 193, N-[4-Methyl-3-(3-{6-[4-(4-methyl-piperazin-1-yl)-phenylamino]-pyrimid-in-4-yl}-3-thiophen-2-ylmethyl-ureido)-phenyl]-3-trifluoromethyl-benzamide]		
				79 to 100	56 to 98	87 to 100	COc1ccc(NC(=O)c2cccc(C(F)(F)F)c2)cc1NC(=O)N(C)c1cc(Nc2ccc(N3CCN(C)CC3)cc2)ncn1 [Example 197, N-[4-Methoxy-3-(3-methyl-3-{6-[4-(4-methyl-Piperazin-1-yl)-phenylamino]-pyrimidin-4-yl}-ureido)-phenyl]-3-trifluoromethyl-benzamide]		
				79 to 100	56 to 98	87 to 100	COc1cc(NC(=O)c2ccc(CN3CCN(C)CC3)c(C(F)(F)F)c2)cc(NC(=O)N(C)c2cc(N)ncn2)c1 [Example 199, N-{3-[3-(6-Amino-pyrimidin-4-yl)-3-methyl-ureido]-5-methoxy-phenyl}-4-(4-methyl-piperazin-1-ylmethyl)-3-trifluoromethyl-benzamide]		
				79 to 100	56 to 98	87 to 100	Cc1ccc(C(=O)Nc2ccc(CN3CCN(C)CC3)c(C(F)(F)F)c2)cc1NC(=O)N(C)c1cc(N)ncn1 [Example 206, 3-[3-(6-Amino-pyrimidin-4-yl)-3-methyl-ureido]-4-methyl-N-[4-(4-methyl-piperazin-1-ylmethyl)-3-trifluoromethyl-phenyl]-benzamide]		

Continued, molecule first:

SMILES	melting point [°C]	inhibition at 10 µM (FGFR3 (K650E); [1]) [%]	inhibition at 10 µM (KDR; 10 μM, Examples 1 to 169) [%]	inhibition at 10 µM (Tek) [%]	inhibition at 10 µM (c-Abl) [%]	inhibition at 10 µM (FGFR3 (K650E); [2]) [%]	inhibition at 10 µM (KDR; 10 μM, Examples 171 to 206) [%]	inhibition at 10 µM (FGFR3 (K650E); read-out: FGFR3 (K650E) inhibition at 10 μM) [%]	inhibition at 10 µM (KDR) [%]
Cc1cccc(Cl)c1NC(=O)Nc1cc(Nc2cccc(OCC3CCN(C)CC3)c2)ncn1 [Example 79, 1-(2-Chloro-6-methyl-phenyl)-3-{6-[3-(1-methyl-piperidin-4-ylmethoxy)-phenylamino]-pyrimidin-4-yl}-urea]	200 to 204	27 to 100	67 to 100	12 to 100					
CC(C)Nc1cc(NC(=O)Nc2c(Cl)cc(Cl)cc2Cl)ncn1 [Example 67, 1-(6-Isopropylamino-pyrimidin-4-yl)-3-(2,4,6-trichloro-phenyl)-urea]	218 to 220	27 to 100	67 to 100	12 to 100					
Cc1cccc(Cl)c1NC(=O)Nc1cc(N[C@H]2CC[C@H](O[Si](C)(C)C(C)(C)C)CC2)ncn1 [Example 89, 1-{6-[(trans)-4-(tert-Butyl-dimethyl-silanyloxy)-cyclohexylamino]-pyrimidin-4-yl}-3-(2-chloro-6-methyl-phenyl)-urea]	218 to 220			12 to 100				27 to 100	67 to 100
COc1ccc(Cl)c(NC(=O)N(C)c2cc(Nc3ccc(N4CCN(C)CC4)cc3)ncn2)c1Cl [Example 1, 3-(2,6-Dichloro-3-methoxy-phenyl)-1-methyl-1-{6-[4-(4-methyl-piperazin-1-yl)-phenylamino]-pyrimidin-4-yl}-urea]	161.5 to 163		67 to 100	12 to 100					
CN1CCN(c2cccc(Nc3cc(NC(=O)Nc4c(Cl)cccc4Cl)ncn3)c2)CC1 [Example 5, 1-(2,6-Dichloro-phenyl)-3-{6-[3-(4-methyl-piperazin-1-yl)-phenylamino]-pyrimidin-4-yl}-urea]	209 to 212	27 to 100	67 to 100	12 to 100					
